Measurements from PubChem BioAssay AID1919002 (Molecular Pharmacology Branch, DTP, NCI, 2023).
Each block holds one compound with its values, some of them ahead of it.

Test system: 743489-274-T-PDC complex spheroid growth
Assay: Anticancer human tumor 743489-274-T-PDC patient-derived renal cell carcinoma cell line growth inhibition [AhR]
Details: for IC50: curve of first compound; for viability, T/C: stronger effect = lower value
In short: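 Agents were dosed in half-log steps down from roughly clinical Cmax, or from 10 microM where Cmax was unknown, alone and with AhR antagonists. Read-out: percent test/control growth of tumor spheroids containing HUVEC and MSC stromal cells.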

[1] = second compound 0.1 µM, first compound 0.0316 µM
[2] = second compound 0.1 µM, first compound 0.1 µM
[3] = second compound 0.316 µM, first compound 0.0316 µM
[4] = second compound 0.316 µM, first compound 0.1 µM
[5] = second compound 1 µM, first compound 0.0316 µM
[6] = second compound 1 µM, first compound 0.1 µM
[7] = second compound 3.16 µM, first compound 0.0316 µM
[8] = second compound 3.16 µM, first compound 0.1 µM
[9] = second compound 10 µM, first compound 0.0316 µM
[10] = second compound 10 µM, first compound 0.1 µM
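Also: spheroids exposed to agents for 7 days before readout.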
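For viability, T/C in this document: 100% = DMSO vehicle control wells.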

- IC50 (second compound 0.1 µM): > 0.1 µM
- IC50 (second compound 0.316 µM): > 0.1 µM
- IC50 (second compound 1 µM): > 0.1 µM
- IC50 (second compound 3.16 µM): > 0.1 µM
- IC50 (second compound 10 µM): > 0.1 µM
Structure (SMILES): Cn1ncnc1C1c2n[nH]c(=O)c3cc(F)cc(c23)NC1c1ccc(F)cc1 (stereo not given) + CC(CO)NC(=O)c1cc(-c2ccc(Cl)cc2)nn(-c2cnn(C)c2)c1=O
- viability, T/C (second compound 0.1 µM, first compound 0.000316 µM): 90.7%
- viability, T/C (second compound 0.1 µM, first compound 0.001 µM): 98%
- viability, T/C (second compound 0.1 µM, first compound 0.00316 µM): 106%
- viability, T/C (second compound 0.1 µM, first compound 0.01 µM): 95%
- viability, T/C [1]: 89.6%
- viability, T/C [2]: 86.8%
- viability, T/C (second compound 0.316 µM, first compound 0.000316 µM): 85.5%
- viability, T/C (second compound 0.316 µM, first compound 0.001 µM): 95.8%
- viability, T/C (second compound 0.316 µM, first compound 0.00316 µM): 115%
- viability, T/C (second compound 0.316 µM, first compound 0.01 µM): 88%
- viability, T/C [3]: 80.6%
- viability, T/C [4]: 84.8%
- viability, T/C (second compound 1 µM, first compound 0.000316 µM): 94.1%
- viability, T/C (second compound 1 µM, first compound 0.001 µM): 97.6%
- viability, T/C (second compound 1 µM, first compound 0.00316 µM): 102%
- viability, T/C (second compound 1 µM, first compound 0.01 µM): 87%
- viability, T/C [5]: 82.7%
- viability, T/C [6]: 91.8%
- viability, T/C (second compound 3.16 µM, first compound 0.000316 µM): 93.9%
- viability, T/C (second compound 3.16 µM, first compound 0.001 µM): 92.2%
- viability, T/C (second compound 3.16 µM, first compound 0.00316 µM): 91.4%
- viability, T/C (second compound 3.16 µM, first compound 0.01 µM): 92.1%
- viability, T/C [7]: 89.4%
- viability, T/C [8]: 93.4%
- viability, T/C (second compound 10 µM, first compound 0.000316 µM): 83.7%
- viability, T/C (second compound 10 µM, first compound 0.001 µM): 86.3%
- viability, T/C (second compound 10 µM, first compound 0.00316 µM): 85%
- viability, T/C (second compound 10 µM, first compound 0.01 µM): 99%
- viability, T/C [9]: 90.9%
- viability, T/C [10]: 83.1%

- IC50 (second compound 0.1 µM): > 10 µM
- IC50 (second compound 0.316 µM): > 10 µM
- IC50 (second compound 1 µM): > 10 µM
- IC50 (second compound 3.16 µM): > 10 µM
- IC50 (second compound 10 µM): > 10 µM
Structure (SMILES): CC1(C)CCC(CN2CCN(c3ccc(C(=O)NS(=O)(=O)c4ccc(NCC5CCOCC5)c([N+](=O)[O-])c4)c(Oc4cnc5[nH]ccc5c4)c3)CC2)=C(c2ccc(Cl)cc2)C1 + CC(CO)NC(=O)c1cc(-c2ccc(Cl)cc2)nn(-c2cnn(C)c2)c1=O
- viability, T/C [1]: 96.8%
- viability, T/C [2]: 97.4%
- viability, T/C (second compound 0.1 µM, first compound 0.316 µM): 90.6%
- viability, T/C (second compound 0.1 µM, first compound 1 µM): 93.7%
- viability, T/C (second compound 0.1 µM, first compound 3.16 µM): 106%
- viability, T/C (second compound 0.1 µM, first compound 10 µM): 96.3%
- viability, T/C [3]: 110%
- viability, T/C [4]: 95%
- viability, T/C (second compound 0.316 µM, first compound 0.316 µM): 93.1%
- viability, T/C (second compound 0.316 µM, first compound 1 µM): 89%
- viability, T/C (second compound 0.316 µM, first compound 3.16 µM): 90.3%
- viability, T/C (second compound 0.316 µM, first compound 10 µM): 94.8%
- viability, T/C [5]: 92%
- viability, T/C [6]: 88.3%
- viability, T/C (second compound 1 µM, first compound 0.316 µM): 98.1%
- viability, T/C (second compound 1 µM, first compound 1 µM): 86%
- viability, T/C (second compound 1 µM, first compound 3.16 µM): 91.9%
- viability, T/C (second compound 1 µM, first compound 10 µM): 95.8%
- viability, T/C [7]: 89.8%
- viability, T/C [8]: 96.3%
- viability, T/C (second compound 3.16 µM, first compound 0.316 µM): 107%
- viability, T/C (second compound 3.16 µM, first compound 1 µM): 95.7%
- viability, T/C (second compound 3.16 µM, first compound 3.16 µM): 98.9%
- viability, T/C (second compound 3.16 µM, first compound 10 µM): 93.6%
- viability, T/C [9]: 95.4%
- viability, T/C [10]: 112%
- viability, T/C (second compound 10 µM, first compound 0.316 µM): 93.1%
- viability, T/C (second compound 10 µM, first compound 1 µM): 93.9%
- viability, T/C (second compound 10 µM, first compound 3.16 µM): 95%
- viability, T/C (second compound 10 µM, first compound 10 µM): 104%
